Measurements as given in ChEMBL document CHEMBL5143725, “Optimization of TEAD P-Site Binding Fragment Hit into In Vivo Active Lead MSC-4106” (J Med Chem, 2022).

Assays:
[1] = Inhibition of YAP/TAZ-TEAD interaction in human SK-HEP1 cells incubated for 24 hrs by luciferase reporter gene assay; type: cell-based
[2] = target: T1, Transcriptional enhancer factor TEF-1 (Homo sapiens, UniProt P28347); experiment: Binding affinity to human TEAD1 (209 to 426 residues) expressed in Escherichia coli BL21 Star (DE3) by surface plasmon resonance assay
T1 sequence (P28347 whole entry, the tested form may be a part): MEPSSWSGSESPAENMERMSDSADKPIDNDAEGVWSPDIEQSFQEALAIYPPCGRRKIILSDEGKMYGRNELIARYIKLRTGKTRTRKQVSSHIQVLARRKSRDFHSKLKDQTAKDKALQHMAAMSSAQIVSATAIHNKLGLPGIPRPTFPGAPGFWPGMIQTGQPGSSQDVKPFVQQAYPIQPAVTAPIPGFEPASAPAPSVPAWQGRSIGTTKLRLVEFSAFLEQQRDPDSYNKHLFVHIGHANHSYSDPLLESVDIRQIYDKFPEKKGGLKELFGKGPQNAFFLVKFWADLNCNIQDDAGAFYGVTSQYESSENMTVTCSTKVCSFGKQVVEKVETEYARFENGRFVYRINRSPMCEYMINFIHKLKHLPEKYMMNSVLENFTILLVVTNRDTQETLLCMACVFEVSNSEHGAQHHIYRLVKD

[3] = target: T2, Transcriptional enhancer factor TEF-4 (Homo sapiens, UniProt Q15562); experiment: Binding affinity to human TEAD2 (217 to 447 residues) expressed in Escherichia coli BL21 Star (DE3) by surface plasmon resonance assay
T2 sequence (Q15562 whole entry, the tested form may be a part): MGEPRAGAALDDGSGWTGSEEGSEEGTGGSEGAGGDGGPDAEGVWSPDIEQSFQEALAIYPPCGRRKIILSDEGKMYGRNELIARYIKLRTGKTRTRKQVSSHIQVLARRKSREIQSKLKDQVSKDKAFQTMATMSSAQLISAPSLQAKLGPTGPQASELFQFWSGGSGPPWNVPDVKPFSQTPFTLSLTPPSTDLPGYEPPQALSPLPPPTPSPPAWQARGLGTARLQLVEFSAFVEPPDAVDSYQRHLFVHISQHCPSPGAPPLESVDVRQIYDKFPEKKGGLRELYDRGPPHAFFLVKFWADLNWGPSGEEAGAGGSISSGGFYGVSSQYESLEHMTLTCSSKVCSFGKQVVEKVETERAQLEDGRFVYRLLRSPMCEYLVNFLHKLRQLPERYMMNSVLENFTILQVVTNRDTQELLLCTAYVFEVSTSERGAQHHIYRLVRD

[4] = target: T3, Transcriptional enhancer factor TEF-3 (Homo sapiens, UniProt Q15561); experiment: Binding affinity to human TEAD4 (217 to 434 residues) expressed in Escherichia coli BL21 Star (DE3) by surface plasmon resonance assay
T3 sequence (Q15561 whole entry, the tested form may be a part): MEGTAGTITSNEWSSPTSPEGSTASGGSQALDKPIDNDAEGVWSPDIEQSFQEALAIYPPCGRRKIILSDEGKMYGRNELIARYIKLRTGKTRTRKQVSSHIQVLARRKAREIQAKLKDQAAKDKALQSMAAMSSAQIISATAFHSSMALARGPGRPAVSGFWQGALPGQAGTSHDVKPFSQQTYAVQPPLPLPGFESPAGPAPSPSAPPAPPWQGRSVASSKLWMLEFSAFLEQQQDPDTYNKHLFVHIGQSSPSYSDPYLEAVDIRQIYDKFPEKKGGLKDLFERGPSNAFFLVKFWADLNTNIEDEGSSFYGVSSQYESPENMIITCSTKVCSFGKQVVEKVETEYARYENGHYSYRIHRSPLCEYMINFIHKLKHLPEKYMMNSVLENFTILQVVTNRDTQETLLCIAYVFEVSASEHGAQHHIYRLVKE

NCI-H226 = experiment: Cytotoxicity against human NCI-H226 cells assessed as cell viability at 10 uM measured for 7 days by celltiter-glo assay; type: functional, cell-based; settings: NCI-H226, 168 h
[5] = target: T1, Transcriptional enhancer factor TEF-1; experiment: Binding affinity to human TEAD1 (209 to 426 residues) expressed in Escherichia coli BL21 Star (DE3) assessed as change in melting temperature incubated for 2 hrs by measuring tryptophane fluorescence by Nano Differential scanning fluorometry
[6] = target: T2, Transcriptional enhancer factor TEF-4; experiment: Binding affinity to human TEAD2 (217 to 447 residues) expressed in Escherichia coli BL21 Star (DE3) assessed as change in melting temperature incubated for 2 hrs by measuring tryptophane fluorescence by Nano Differential scanning fluorometry
[7] = target: T4, Transcriptional enhancer factor TEF-5 (Homo sapiens, UniProt Q99594); experiment: Binding affinity to human TEAD3 (216 to 435 residues) expressed in Escherichia coli BL21 Star (DE3) assessed as change in melting temperature incubated for 2 hrs by measuring tryptophane fluorescence by Nano Differential scanning fluorometry
T4 sequence (Q99594 whole entry, the tested form may be a part): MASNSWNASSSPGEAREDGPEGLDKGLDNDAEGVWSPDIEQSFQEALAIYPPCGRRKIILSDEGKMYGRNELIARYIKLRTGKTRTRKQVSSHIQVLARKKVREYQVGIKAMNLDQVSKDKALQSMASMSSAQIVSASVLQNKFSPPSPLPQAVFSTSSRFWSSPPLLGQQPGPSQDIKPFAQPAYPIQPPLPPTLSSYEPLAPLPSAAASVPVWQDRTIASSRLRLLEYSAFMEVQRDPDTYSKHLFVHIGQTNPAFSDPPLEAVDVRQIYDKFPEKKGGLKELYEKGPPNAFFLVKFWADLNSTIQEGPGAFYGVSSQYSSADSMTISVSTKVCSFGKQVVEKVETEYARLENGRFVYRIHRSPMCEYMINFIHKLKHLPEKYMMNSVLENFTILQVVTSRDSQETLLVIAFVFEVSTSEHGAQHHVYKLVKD

[8] = target: T3, Transcriptional enhancer factor TEF-3; experiment: Binding affinity to human TEAD4 (217 to 434 residues) expressed in Escherichia coli BL21 Star (DE3) assessed as change in melting temperature incubated for 2 hr by measuring tryptophane fluorescence by Nano Differential scanning fluorometry
[9] = target: T1, Transcriptional enhancer factor TEF-1; experiment: Inhibition of pSF-CMV-P-FLAG tagged human TEAD1 palmitoylation transfected in HEK293 cells at 10 uM incubated for 6 hrs by Western blot analysis relative to control; type: cell-based
[10] = target: T2, Transcriptional enhancer factor TEF-4; experiment: Inhibition of pSF-CMV-P-FLAG tagged human TEAD2 palmitoylation transfected in HEK293 cells at 10 uM incubated for 6 hrs by Western blot analysis relative to control; type: cell-based
[11] = target: T4, Transcriptional enhancer factor TEF-5; experiment: Inhibition of pSF-CMV-P-FLAG tagged human TEAD3 palmitoylation transfected in HEK293 cells at 10 uM incubated for 6 hrs by Western blot analysis relative to control; type: cell-based
[12] = target: T3, Transcriptional enhancer factor TEF-3; experiment: Inhibition of pSF-CMV-P-FLAG tagged human TEAD4 palmitoylation transfected in HEK293 cells at 10 uM incubated for 6 hrs by Western blot analysis relative to control; type: cell-based
[13] = Solubility of the compound in PBS buffer at pH 7.4; type: physicochemical
[14] = Solubility of the compound in SGF buffer at pH 1.2; type: physicochemical
[15] = Microsomal stability in human microsomes measured per 10^6 cells; type: ADME, Microsome
[16] = Microsomal stability in mouse microsomes measured per 10^6 cells; type: ADME, Microsome
[17] = Microsomal stability in human hepatocyte measured per 10^6 cells; type: ADME, cell-based; settings: hepatocytes
[18] = target: T1, Transcriptional enhancer factor TEF-1; experiment: Binding affinity to human TEAD1 (209 to 426 residues) expressed in Escherichia coli BL21 Star (DE3) assessed as change in melting temperature incubated for 2 hrs by measuring scattering fluorescence by Nano Differential scanning fluorometry
[19] = target: T2, Transcriptional enhancer factor TEF-4; experiment: Binding affinity to human TEAD2 (217 to 447 residues) expressed in Escherichia coli BL21 Star (DE3) assessed as change in melting temperature incubated for 2 hrs measuring scattering fluorescence by Nano Differential scanning fluorometry
[20] = target: T4, Transcriptional enhancer factor TEF-5; experiment: Binding affinity to human TEAD3 (216 to 435 residues) expressed in Escherichia coli BL21 Star (DE3) assessed as change in melting temperature incubated for 2 hrs by measuring scattering fluorescence by Nano Differential scanning fluorometry
[21] = Microsomal stability in mouse hepatocyte measured per 10^6 cells; type: ADME, cell-based; settings: hepatocytes

Cn1cc2c3cc(C(=O)O)ccc3n(-c3ccc(F)cc3)c2n1
IC50 [1]: 163 nM

Cn1cc2c3cc(C(=O)O)ccc3n(-c3ccc(C(F)(F)F)c(F)c3)c2n1
IC50 [1]: 4 nM

Cn1cc2c3cc(C(=O)O)ccc3n(-c3ccc(C(F)(F)F)nc3)c2n1
IC50 [1]: 14 nM

CCCc1nn(C2CCC(F)(F)CC2)c2ccc(C(=O)O)cc12
IC50 [1]: 1.1 nM | Kd [2]: 5800 nM | Kd [3]: 43000 nM | Kd [4]: 7600 nM

Cn1cc2c3cc(C(=O)O)ccc3n(C3CCCCC3)c2n1
IC50 [1]: 0.16 nM

N#CCn1cc2c3cc(C(=O)O)ccc3n(-c3ccc(C(F)(F)F)cc3)c2n1
IC50 [1]: 27 nM

C[C@H](NC(=O)c1ccc2c(-c3ccc(C(F)(F)F)cc3)cccc2c1)c1ccccn1
IC50 [1]: 25 nM | IC50 (NCI-H226): 42 nM | ΔTm [5]: 10.8 °C | ΔTm [6]: 9.8 °C | ΔTm [7]: 10.1 °C | ΔTm [8]: -2.25 °C | inhibition [9]: 93% | inhibition [10]: 87% | inhibition [11]: 93% | inhibition [12]: 93%

O=C(O)c1ccc2c(c1)c1c[nH]nc1n2-c1ccc(C(F)(F)F)cc1
IC50 [1]: 138 nM

Cn1cc2c3cc(C(=O)O)ccc3n(CC3CCC(C(F)(F)F)CC3)c2n1 (stereo not given)
IC50 [1]: 30 nM

Cn1cc2c3cc(C(=O)O)ccc3n(-c3ccc(C(F)(F)F)cn3)c2n1
IC50 [1]: 5 nM

O=c1[nH]c(-c2nccnc2Nc2ccc(C(F)(F)F)cc2)no1
IC50 [1]: 15 nM | IC50 (NCI-H226): 110 nM | ΔTm [5]: 11.2 °C | ΔTm [6]: 12.3 °C | ΔTm [7]: 8.2 °C | ΔTm [8]: 9.8 °C | inhibition [9]: 97% | inhibition [10]: 86% | inhibition [11]: 83% | inhibition [12]: 91%

Cn1cc2c3cc(C(=O)O)ccc3n(-c3cccc(C(F)(F)F)c3)c2n1
IC50 [1]: 46 nM

CNS(=O)(=O)c1ccc(NCc2ccccc2)c(-c2cn(C)cn2)c1
IC50 [1]: 29 nM | IC50 (NCI-H226): 140 nM | ΔTm [5]: 3.4 °C | ΔTm [6]: -0.7 °C | ΔTm [7]: 0.4 °C | ΔTm [8]: -0.1 °C | inhibition [9]: 96% | inhibition [10]: 33% | inhibition [11]: 10% | inhibition [12]: 19%

CNS(=O)(=O)c1ccc(Nc2ccc(C(F)(F)F)cc2)c(-c2cn(C)cn2)c1
IC50 [1]: 1 nM | IC50 (NCI-H226): 3 nM | ΔTm [5]: 10.2 °C | ΔTm [6]: 7.2 °C | ΔTm [7]: 2 °C | ΔTm [8]: 3.5 °C | inhibition [9]: 97% | inhibition [10]: 69% | inhibition [11]: 29% | inhibition [12]: 70%

Cn1cc2c3cc(C(=O)O)ccc3n(CCC(C)(C)C(F)(F)F)c2n1
IC50 [1]: 83 nM | solubility [13]: > 40 µg/mL | solubility [14]: < 1 µg/mL | Stability [15]: < 10 µL/min | Stability [16]: < 10 µL/min

Cn1ncc2c3cc(C(=O)O)ccc3n(-c3ccc(C(F)(F)F)cc3)c21
IC50 [1]: 16.6 nM

O=C(O)c1ccc2c(cnn2C2CCCC2)c1
IC50 [1]: > 30 nM

CCCn1cc2c3cc(C(=O)O)ccc3n(-c3ccc(C(F)(F)F)cc3)c2n1
IC50 [1]: 7 nM

O=C(O)c1cnc2c(cnn2C2CCCCC2)c1
IC50 [1]: 5.2 nM

COC1CCC(Cn2c3ccc(C(=O)O)cc3c3cn(C)nc32)CC1 (stereo not given)
IC50 [1]: 250 nM

Cn1cc2c(n1)c1cc(C(=O)O)ccc1n2C1CCCCC1
IC50 [1]: 0.73 nM

O=C(O)c1cnc2c(cnn2C2CCC(F)(F)CC2)c1
IC50 [1]: 28 nM

Cn1cc2c3cc(C(=O)O)ccc3n(CC3CCCCC3)c2n1
IC50 [1]: 96 nM | solubility [13]: > 40 µg/mL | solubility [14]: < 1 µg/mL

Cn1cc2c(n1)c1cc(C(=O)O)ccc1n2-c1ccc(C(F)(F)F)cc1
IC50 [1]: 9 nM

Cn1cc2c3nc(C(=O)O)ccc3n(-c3ccc(C(F)(F)F)cc3)c2n1
IC50 [1]: 16 nM

CCn1cc2c3cc(C(=O)O)ccc3n(-c3ccc(C(F)(F)F)cc3)c2n1
IC50 [1]: 3 nM

Cn1cc2c3cc(C(=O)O)ccc3n(C34CC(C(F)(F)F)(C3)C4)c2n1
IC50 [1]: 33 nM | Stability [15]: < 10 µL/min | Stability [16]: < 10 µL/min

Cn1cc2c3cc(C(=O)O)ccc3n(C3CCC(C(F)(F)F)CC3)c2n1 (stereo not given)
IC50 [1]: 42 nM | solubility [13]: > 40 µg/mL | solubility [14]: < 1 µg/mL

Cn1cc2c3cc(C(=O)O)ccc3n(-c3ccc(OC(F)(F)F)cc3F)c2n1
IC50 [1]: 27 nM

Cn1cc2c3cc(C(=O)O)ncc3n(-c3ccc(C(F)(F)F)cc3)c2n1
IC50 [1]: 39 nM

Cn1cc2c(n1)[nH]c1ccc(C(=O)O)cc12
IC50 [1]: > 30000 nM

C[C@@H](NC(=O)c1ccc2c(-c3ccc(C(F)(F)F)cc3)cccc2c1)c1cccc(N)n1
IC50 [1]: 900 nM | IC50 (NCI-H226): 661 nM | ΔTm [5]: 5.5 °C | ΔTm [6]: 3.8 °C | ΔTm [7]: 5.9 °C | ΔTm [8]: 1.3 °C | inhibition [9]: 83% | inhibition [10]: 51% | inhibition [11]: 91% | inhibition [12]: 66%

O=C(O)c1ccc2c(cnn2C2CCC(F)(F)CC2)c1
IC50 [1]: 14 nM

Cn1cc2c3cc(C(=O)O)ccc3n(CC3CC(C(F)(F)F)C3)c2n1 (stereo not given)
IC50 [1]: 52 nM | solubility [13]: > 40 µg/mL | solubility [14]: < 1 µg/mL | Stability [15]: < 10 µL/min | Stability [16]: < 10 µL/min

C[C@H](NC(=O)c1ccc2c(-c3ccc(C(F)(F)F)cc3)cccc2c1)c1cccc(N)n1
IC50 [1]: 30 nM | IC50 (NCI-H226): 20 nM | ΔTm [5]: 14.5 °C | ΔTm [6]: 13.4 °C | ΔTm [7]: 13.4 °C | ΔTm [8]: 1.3 °C | inhibition [9]: 92% | inhibition [10]: 87% | inhibition [11]: 91% | inhibition [12]: 93%

Cn1cc2c(n1)c1cc(C(=O)O)ccc1n2C1CCCC1
IC50 [1]: 17 nM

Cn1cc2c3cc(C(=O)O)ccc3n(-c3ccc(OC(F)(F)F)cc3)c2n1
IC50 [1]: 3 nM | Stability [15]: 12 µL/min | Stability [17]: 19 µL/min

Cn1cc2c3cc(C(=O)O)ccc3n(-c3cccc(OC(F)(F)F)c3)c2n1
IC50 [1]: 11 nM

Cn1cc2c3cc(C(=O)O)cnc3n(-c3ccc(C(F)(F)F)cc3)c2n1
IC50 [1]: 6 nM

Cc1nccnc1-c1nn2c(=O)cc(-c3ccc(C4CCCCC4)cc3)[nH]c2c1C(=O)N1CC(CF)C1
IC50 [1]: 36 nM | IC50 (NCI-H226): 82 nM | ΔTm [8]: 14.9 °C | inhibition [9]: 84% | inhibition [10]: 86% | inhibition [11]: 91% | inhibition [12]: 88% | ΔTm [18]: 7.6 °C | ΔTm [19]: 9.5 °C | ΔTm [20]: 6.9 °C

Cn1cc2c3cc(C(=O)O)ccc3n(C3CC4(C3)CC(F)(F)C4)c2n1
IC50 [1]: 33 nM | Stability [15]: < 10 µL/min | Stability [16]: < 10 µL/min

O=C(O)c1cnc2c(cnn2C2CCCC2)c1
IC50 [1]: 16 nM

Cn1cc2c3cc(C(=O)O)ccc3n(C)c2n1
IC50 [1]: > 30000 nM | Stability [15]: < 10 µL/min | Stability [16]: < 10 µL/min

O=C(O)c1ccc2c(c1)c1cn(C(F)(F)F)nc1n2-c1ccc(C(F)(F)F)cc1
IC50 [1]: 7 nM | Stability [17]: < 4 µL/min

Cn1ncc2c1c1cc(C(=O)O)ccc1n2-c1ccc(C(F)(F)F)cc1
IC50 [1]: 48 nM

C#CCn1cc2c3cc(C(=O)O)ccc3n(-c3ccc(C(F)(F)F)cc3)c2n1
IC50 [1]: 4 nM | Stability [17]: > 20 µL/min | Stability [21]: > 20 µL/min
